From ChEMBL document CHEMBL4219129, “Design, synthesis and biological evaluation of spiropyrimidinetriones oxazolidinone derivatives as antibacterial agents” (2018)
Converted amounts (≈) assume the structure as drawn.

How the values were obtained:
Format in all cases: functional
Staphylococcus aureus [1] = assay: Antibacterial activity against PVL positive Staphylococcus aureus
Staphylococcus aureus [2] = assay: Antibacterial activity against Staphylococcus aureus ATCC 29213
Staphylococcus aureus [3] = assay: Antibacterial activity against Staphylococcus aureus FDA 209P
Staphylococcus aureus [4] = assay: Antibacterial activity against methicillin-resistant Staphylococcus aureus 562
Staphylococcus aureus [5] = assay: Antibacterial activity against methicillin-resistant Staphylococcus aureus 1201984
Staphylococcus aureus [6] = assay: Antibacterial activity against methicillin-resistant Staphylococcus aureus DB-00026
Staphylococcus aureus [7] = assay: Antibacterial activity against methicillin-resistant Staphylococcus aureus USA300 BAA-1556
Staphylococcus aureus [8] = assay: Antibacterial activity against Staphylococcus aureus Mu50 ATCC 700699
Staphylococcus aureus [9] = assay: Antibacterial activity against linezolid-resistant Staphylococcus aureus O-128
Staphylococcus aureus [10] = assay: Antibacterial activity against […] Staphylococcus aureus ATCC 13709 SMITH
[11] = tested on: Staphylococcus epidermidis; assay: Antibacterial activity against Staphylococcus epidermidis ATCC 12228
[12] = tested on: Staphylococcus epidermidis; assay: Antibacterial activity against methicillin-resistant Staphylococcus epidermidis ATCC 35984
[13] = tested on: Staphylococcus epidermidis; assay: Antibacterial activity against linezolid-resistant Staphylococcus epidermidis 1117174
[14] = tested on: Staphylococcus epidermidis; assay: Antibacterial activity against linezolid-resistant Staphylococcus epidermidis 1089191
Escherichia coli [15] = assay: Antibacterial activity against TolC-deficient Escherichia coli
Escherichia coli [16] = assay: Antibacterial activity against Escherichia coli MG1655; conditions: K-12 substr. MG1655

| SMILES | MIC (Staphylococcus aureus [1]) [µg/mL] | MIC (Staphylococcus aureus [2]) [µg/mL] | MIC (Staphylococcus aureus [3]) [µg/mL] | MIC (Staphylococcus aureus [4]) [µg/mL] | MIC (Staphylococcus aureus [5]) [µg/mL] | MIC (Staphylococcus aureus [6]) [µg/mL] | MIC (Staphylococcus aureus [7]) [µg/mL] | MIC (Staphylococcus aureus [8]) [µg/mL] | MIC (Staphylococcus aureus [9]) [µg/mL] | MIC (Staphylococcus aureus [10]) [µg/mL] | MIC [11] [µg/mL] | MIC [12] [µg/mL] | MIC [13] [µg/mL] | MIC [14] [µg/mL] | MIC (Escherichia coli [15]) [µg/mL] | MIC (Escherichia coli [16]) [µg/mL] |
| --- | --- | --- | --- | --- | --- | --- | --- | --- | --- | --- | --- | --- | --- | --- | --- | --- |
| CC(=O)NC[C@H]1CN(c2ccc(-c3ccc4c(c3)CC3(C(=O)NC(=O)NC3=O)C3COCCN43)c(F)c2)C(=O)O1 (some centres not stated) | 8 (≈ 14.5 µM) | 4 (≈ 7.25 µM) | 8 (≈ 14.5 µM) | 4 (≈ 7.25 µM) | 16 (≈ 29 µM) | 8 (≈ 14.5 µM) | 8 (≈ 14.5 µM) | 4 (≈ 7.25 µM) | 32 (≈ 58 µM) | 32 (≈ 58 µM) | 4 (≈ 7.25 µM) | 2 (≈ 3.63 µM) | 32 (≈ 58 µM) | > 32 | 2 (≈ 3.63 µM) | > 32 |
| CS(=O)(=O)NC[C@H]1CN(c2ccc(-c3ccc4c(c3)CC3(C(=O)NC(=O)NC3=O)C3CCCN43)c(F)c2)C(=O)O1 (some centres not stated) | 8 (≈ 14 µM) | 16 (≈ 28 µM) | 16 (≈ 28 µM) | 8 (≈ 14 µM) | 8 (≈ 14 µM) | 16 (≈ 28 µM) | 16 (≈ 28 µM) | 8 (≈ 14 µM) | 32 (≈ 56 µM) | > 32 | 8 (≈ 14 µM) | 4 (≈ 7 µM) | 32 (≈ 56 µM) | > 32 | 16 (≈ 28 µM) | > 32 |
| CS(=O)(=O)NC[C@H]1CN(c2ccc(-c3ccc4c(c3)CC3(C(=O)NC(=O)NC3=O)C3COCCN43)c(F)c2)C(=O)O1 (some centres not stated) | 32 (≈ 54.5 µM) | 32 (≈ 54.5 µM) | 32 (≈ 54.5 µM) | 32 (≈ 54.5 µM) | 32 (≈ 54.5 µM) | 32 (≈ 54.5 µM) | 32 (≈ 54.5 µM) | 16 (≈ 27.2 µM) | > 32 | > 32 | 16 to 32 (≈ 27.2 to 54.5 µM) | 16 to 32 (≈ 27.2 to 54.5 µM) | > 32 | > 32 | 32 (≈ 54.5 µM) | > 32 |
| CC(=O)NC[C@H]1CN(c2ccc3c(c2)CC2(C(=O)NC(=O)NC2=O)C2COCCN32)C(=O)O1 (some centres not stated) | > 32 | > 32 | > 32 | > 32 | > 32 | > 32 | > 32 | > 32 | > 32 | > 32 | > 32 | > 32 | 32 (≈ 70 µM) | > 32 | > 32 | > 32 |
| O=C1O[C@@H](CO)CN1c1ccc(-c2ccc3c(c2)CC2(C(=O)NNC2=O)C2CCCN32)c(F)c1 (some centres not stated) | > 32 | 4 to 32 (≈ 8.58 to 68.6 µM) | 32 (≈ 68.6 µM) | 2 to 32 (≈ 4.29 to 68.6 µM) | > 32 | 8 to 16 (≈ 17.2 to 34.3 µM) | 32 (≈ 68.6 µM) | 16 (≈ 34.3 µM) | > 32 | ≥ 32 | 2 to 32 (≈ 4.29 to 68.6 µM) |  | ≥ 32 | > 32 | > 32 | > 32 |
| CCOC(=O)NC[C@H]1CN(c2ccc(-c3ccc4c(c3)CC3(C(=O)NC(=O)NC3=O)C3CCCN43)c(F)c2)C(=O)O1 (some centres not stated) | 8 (≈ 14.1 µM) | 8 (≈ 14.1 µM) | 8 (≈ 14.1 µM) | 4 (≈ 7.07 µM) | 8 (≈ 14.1 µM) | 8 (≈ 14.1 µM) | 8 (≈ 14.1 µM) | 4 (≈ 7.07 µM) | 32 (≈ 56.6 µM) | > 32 | 4 (≈ 7.07 µM) | 4 (≈ 7.07 µM) | > 32 | > 32 | 8 (≈ 14.1 µM) | > 32 |
| CC(=O)NC[C@H]1CN(c2ccc3c(c2)CC2(C(=O)NNC2=O)C2COCCN32)C(=O)O1 (some centres not stated) | > 32 | > 32 | > 32 | > 32 | > 32 | > 32 | > 32 | > 32 | > 32 | > 32 | > 32 | > 32 | 32 (≈ 74.5 µM) | > 32 | > 32 | > 32 |
| CCC(=O)NC[C@H]1CN(c2ccc(-c3ccc4c(c3)CC3(C(=O)NC(=O)NC3=O)C3COCCN43)c(F)c2)C(=O)O1 (some centres not stated) | 16 (≈ 28.3 µM) | 8 (≈ 14.1 µM) | 16 (≈ 28.3 µM) | 4 (≈ 7.07 µM) | 16 (≈ 28.3 µM) | 16 (≈ 28.3 µM) | 16 (≈ 28.3 µM) | 4 (≈ 7.07 µM) | 32 (≈ 56.6 µM) | > 32 | 4 (≈ 7.07 µM) | 4 (≈ 7.07 µM) | 32 (≈ 56.6 µM) | > 32 | 4 (≈ 7.07 µM) | > 32 |
| COC(=O)C1(C(=O)OC)Cc2cc(-c3ccc(N4C[C@H](CNC(C)=O)OC4=O)cc3F)ccc2N2CCOCC21 (some centres not stated) | 4 (≈ 7.2 µM) | 8 (≈ 14.4 µM) | 16 (≈ 28.8 µM) | 4 (≈ 7.2 µM) | 4 (≈ 7.2 µM) | 16 (≈ 28.8 µM) | 16 (≈ 28.8 µM) | 8 (≈ 14.4 µM) | 32 (≈ 57.6 µM) | > 32 | 4 (≈ 7.2 µM) | 4 (≈ 7.2 µM) | 32 (≈ 57.6 µM) | > 32 | 16 (≈ 28.8 µM) | > 32 |
| COC(=O)C1(C(=O)OC)Cc2cc(-c3ccc(N4C[C@H](CO)OC4=O)cc3F)ccc2N2CCOCC21 (some centres not stated) | 8 (≈ 15.5 µM) | 16 (≈ 31.1 µM) | 16 (≈ 31.1 µM) | 8 (≈ 15.5 µM) | 8 (≈ 15.5 µM) | 16 (≈ 31.1 µM) | 16 (≈ 31.1 µM) | 16 (≈ 31.1 µM) | > 32 | > 32 | 8 (≈ 15.5 µM) | 8 (≈ 15.5 µM) | > 32 | > 32 | 16 (≈ 31.1 µM) | > 32 |
| O=C1NC(=O)C2(Cc3cc(-c4ccc(N5C[C@H](CNC(=O)C(F)(F)F)OC5=O)cc4F)ccc3N3CCCC32)C(=O)N1 (some centres not stated) | 8 (≈ 13.6 µM) | 32 (≈ 54.3 µM) | 16 (≈ 27.1 µM) | 8 (≈ 13.6 µM) | 8 (≈ 13.6 µM) | 16 (≈ 27.1 µM) | 16 (≈ 27.1 µM) | 8 (≈ 13.6 µM) | 32 (≈ 54.3 µM) | 32 (≈ 54.3 µM) | 8 (≈ 13.6 µM) | 4 (≈ 6.79 µM) | 32 (≈ 54.3 µM) | 32 (≈ 54.3 µM) | 16 (≈ 27.1 µM) | > 32 |
| O=C1O[C@@H](CO)CN1c1ccc2c(c1)CC1(C(=O)NNC1=O)C1COCCN21 (some centres not stated) | > 32 | > 32 | > 32 | > 32 | > 32 | > 32 | > 32 | > 32 | > 32 | > 32 | > 32 | > 32 | 32 (≈ 82.4 µM) | > 32 | > 32 | > 32 |
| COC(=O)NC[C@H]1CN(c2ccc(-c3ccc4c(c3)CC3(C(=O)NC(=O)NC3=O)C3COCCN43)c(F)c2)C(=O)O1 (some centres not stated) | 8 (≈ 14.1 µM) | 4 (≈ 7.05 µM) | 8 (≈ 14.1 µM) | 4 (≈ 7.05 µM) | 16 (≈ 28.2 µM) | 8 (≈ 14.1 µM) | 8 (≈ 14.1 µM) | 4 (≈ 7.05 µM) | 32 (≈ 56.4 µM) | > 32 | 4 (≈ 7.05 µM) | 2 (≈ 3.52 µM) | 32 (≈ 56.4 µM) | > 32 | 4 (≈ 7.05 µM) | > 32 |
